Measurements as given in patent publication US11337976B2 (Plexxikon Inc., priority 2011, dated 2022).

Tested on: A375 melanoma cells (B-Raf V600E mutation)
Test: A375 (A375_P-ERK) cell activity / cell growth inhibition assay
Type: cell-based, human
Details: Homo sapiens, A-375; A375 cells (text: A375_P-ERK)

Compound | IC50 [µM]
CN(C1CC1)S(=O)(=O)Nc1ccc(F)c(C(=O)c2c[nH]c3ncc(-c4cnc(C5CC5)nc4)cc23)c1F [P-0252, 3-[3-[[cyclopropyl(methyl)sulfamoyl]amino]-2,6-difluoro-benzoyl]-5-(2-cyclopropylpyrimidin-5-yl)-1H-pyrrolo[2,3-b]pyridine] | < 1
CN(C)S(=O)(=O)Nc1ccc(F)c(C(=O)c2c[nH]c3ncc(-c4ccc(C5(C#N)CC5)cc4)cc23)c1F [P-0237, 5-[4-(1-cyanocyclopropyl)phenyl]-3-[3-(dimethylsulfamoylamino)-2,6-difluoro-benzoyl]-1H-pyrrolo[2,3-b]pyridine] | < 1
CC(C)c1ncc(-c2cnc3[nH]cc(C(=O)c4cccc(NS(=O)(=O)N(C)C)c4F)c3c2)cn1 [P-0051, 3-[3-(dimethylsulfamoylamino)-2-fluoro-benzoyl]-5-(2-isopropylpyrimidin-5-yl)-1H-pyrrolo[2,3-b]pyridine] | < 1
CCN(C)S(=O)(=O)Nc1cccc(C(=O)c2c[nH]c3ncc(-c4cnc(C5CC5)nc4)cc23)c1F [P-0058] | < 1
CCN(C)S(=O)(=O)Nc1cccc(C(=O)c2c[nH]c3ncc(-c4cnc(C(C)C)nc4)cc23)c1F [P-0057, 3-[3-[[ethyl(methyl)sulfamoyl]amino]-2-fluoro-benzoyl]-5-(2-isopropylpyrimidin-5-yl)-1H-pyrrolo[2,3-b]pyridine] | < 1
CCN(C)S(=O)(=O)Nc1ccc(F)c(C(=O)c2c[nH]c3ncc(Cl)cc23)c1F [P-0012, 5-chloro-3-[3-[[ethyl(methyl)sulfamoyl]amino]-2,6-difluoro-benzoyl]-1H-pyrrolo[2,3-b]pyridine] | < 1
CCN(C)S(=O)(=O)Nc1ccc(F)c(C(=O)c2c[nH]c3ncc(-c4ccc(C(C)(C)O)nc4)cc23)c1F [P-0307, 3-[3-[[ethyl(methyl)sulfamoyl]amino]-2,6-difluoro-benzoyl]-5-[6-(1-hydroxy-1-methyl-ethyl)-3-pyridyl]-1H-pyrrolo[2,3-b]pyridine] | < 1
CCN(C)S(=O)(=O)Nc1ccc(F)c(C(=O)c2c[nH]c3ncc(-c4ccnc(F)c4)cc23)c1F [P-0283, 3-[3-[[ethyl(methyl)sulfamoyl]amino]-2,6-difluoro-benzoyl]-5-(2-fluoro-4-pyridyl)-1H-pyrrolo[2,3-b]pyridine] | > 1
CC(C)(O)c1nc(-c2cnc3[nH]cc(C(=O)c4c(F)ccc(NS(=O)(=O)N5CCCC5)c4F)c3c2)cs1 [P-0265, N-[2,4-difluoro-3-[5-[2-(1-hydroxy-1-methyl-ethyl)thiazol-4-yl]-1H-pyrrolo[2,3-b]pyridine-3-carbonyl]phenyl]pyrrolidine-1-sulfonamide] | < 1
O=C(c1c(F)ccc(NS(=O)(=O)N2CC[C@H](F)C2)c1F)c1c[nH]c2ncc(-c3cnc(C4CC4)nc3)cc12 [P-0289, (3S)—N-[3-[5-(2-cyclopropylpyrimidin-5-yl)-1H-pyrrolo[2,3-b]pyridine-3-carbonyl]-2,4-difluoro-phenyl]-3-fluoro-pyrrolidine-1-sulfonamide] | < 1
N#Cc1ccc(-c2cnc3[nH]cc(C(=O)c4cccc(NS(=O)(=O)N5CCCC5)c4F)c3c2)cn1 [P-0094, N-[3-[5-(6-cyano-3-pyridyl)-1H-pyrrolo[2,3-b]pyridine-3-carbonyl]-2-fluoro-phenyl]pyrrolidine-1-sulfonamide] | < 1
Nc1ncc(-c2cnc3[nH]cc(C(=O)c4c(F)ccc(NS(=O)(=O)N5CCCC5)c4F)c3c2)cn1 [P-0279, N-[3-[5-(2-aminopyrimidin-5-yl)-1H-pyrrolo[2,3-b]pyridine-3-carbonyl]-2,4-difluoro-phenyl]pyrrolidine-1-sulfonamide] | > 1
O=C(c1c(F)ccc(NS(=O)(=O)N2CCCC2)c1F)c1c[nH]c2ncc(-c3ccnc(C4CC4)c3)cc12 [P-0295, N-[3-[5-(2-cyclopropyl-4-pyridyl)-1H-pyrrolo[2,3-b]pyridine-3-carbonyl]-2,4-difluoro-phenyl]pyrrolidine-1-sulfonamide] | < 1
Cc1ncc(-c2cnc3[nH]cc(C(=O)c4cccc(NS(=O)(=O)N5CCCC5)c4F)c3c2)cn1 [P-0092, N-[2-fluoro-3-[5-(2-methylpyrimidin-5-yl)-1H-pyrrolo[2,3-b]pyridine-3-carbonyl]phenyl]pyrrolidine-1-sulfonamide] | < 1
O=C(c1cccc(NS(=O)(=O)N2CCCC2)c1F)c1c[nH]c2ncc(-c3cnc(N4CCOCC4)nc3)cc12 [P-0235, N-[2-fluoro-3-[5-(2-morpholinopyrimidin-5-yl)-1H-pyrrolo[2,3-b]pyridine-3-carbonyl]phenyl]pyrrolidine-1-sulfonamide] | < 1
CCCNS(=O)(=O)Nc1cccc(C(=O)c2c[nH]c3ncc(-c4cnn(C)c4)cc23)c1F [P-0242, [2-fluoro-3-(propylsulfamoylamino)phenyl]-[5-(1-methylpyrazol-4-yl)-1H-pyrrolo[2,3-b]pyridin-3-yl]methanone] | > 1
CCN(C)S(=O)(=O)Nc1cccc(C(=O)c2c[nH]c3ncc(Cl)cc23)c1F [P-0018, 5-chloro-3-[3-[[ethyl(methyl)sulfamoyl]amino]-2-fluoro-benzoyl]-1H-pyrrolo[2,3-b]pyridine] | < 1
COCCN(C)S(=O)(=O)Nc1cccc(C(=O)c2c[nH]c3ncc(-c4ccc(C5(C#N)CC5)cc4)cc23)c1F [P-0080, 5-[4-(1-cyanocyclopropyl)phenyl]-3-[2-fluoro-3-[[2-methoxyethyl(methyl)sulfamoyl]amino]benzoyl]-1H-pyrrolo[2,3-b]pyridine] | < 1
O=C(c1c(F)ccc(NS(=O)(=O)N2CCC(F)C2)c1F)c1c[nH]c2ncc(-c3cnc(C4CC4)nc3)cc12 (stereo not shown) [P-0339, N-[3-[5-(2-cyclopropylpyrimidin-5-yl)-1H-pyrrolo[2,3-b]pyridine-3-carbonyl]-2,4-difluoro-phenyl]-3-fluoro-pyrrolidine-1-sulfonamide] | < 1
CCN(C)S(=O)(=O)Nc1ccc(F)c(C(=O)c2c[nH]c3ncc(-c4cccc(C5(C#N)CC5)c4)cc23)c1F [P-0276, 5-[3-(1-cyanocyclopropyl)phenyl]-3-[3-[[ethyl(methyl)sulfamoyl]amino]-2,6-difluoro-benzoyl]-1H-pyrrolo[2,3-b]pyridine] | < 1
CCN(C)S(=O)(=O)Nc1cccc(C(=O)c2c[nH]c3ncc(C#N)cc23)c1F [P-0039, 5-cyano-3-[3-[[ethyl(methyl)sulfamoyl]amino]-2-fluoro-benzoyl]-1H-pyrrolo[2,3-b]pyridine] | < 1
O=C(c1cccc(NS(=O)(=O)N2CCCC2)c1F)c1c[nH]c2ncc(-c3cc(N4CCOCC4)ncn3)cc12 [P-0321, N-[2-fluoro-3-[5-(6-morpholinopyrimidin-4-yl)-1H-pyrrolo[2,3-b]pyridine-3-carbonyl]phenyl]pyrrolidine-1-sulfonamide] | < 1
CCN(C)S(=O)(=O)Nc1cccc(C(=O)c2c[nH]c3ncc(-c4ccc(C#N)nc4)cc23)c1F [P-0102, 5-(6-cyano-3-pyridyl)-3-[3-[[ethyl(methyl)sulfamoyl]amino]-2-fluoro-benzoyl]-1H-pyrrolo[2,3-b]pyridine] | < 1
O=C(c1cccc(NS(=O)(=O)N2CCCC2)c1F)c1c[nH]c2ncc(-c3ccc(C(F)(F)F)nc3)cc12 [P-0095, N-[2-fluoro-3-[5-[6-(trifluoromethyl)-3-pyridyl]-1H-pyrrolo[2,3-b]pyridine-3-carbonyl]phenyl]pyrrolidine-1-sulfonamide] | < 1
CNS(=O)(=O)Nc1cccc(C(=O)c2c[nH]c3ncc(-c4cnc(OC)nc4)cc23)c1F [P-0026] | > 1
CCN(C)S(=O)(=O)Nc1cccc(C(=O)c2c[nH]c3ncc(Br)cc23)c1F [P-0038, 5-bromo-3-[3-[[ethyl(methyl)sulfamoyl]amino]-2-fluoro-benzoyl]-1H-pyrrolo[2,3-b]pyridine] | < 1
COc1ncc(-c2cnc3[nH]cc(C(=O)c4cccc(NS(=O)(=O)N5CCCC5)c4F)c3c2)c(OC)n1 [P-0044, N-[3-[5-(2,4-dimethoxypyrimidin-5-yl)-1H-pyrrolo[2,3-b]pyridine-3-carbonyl]-2-fluoro-phenyl]pyrrolidine-1-sulfonamide] | < 1
CCCNS(=O)(=O)Nc1cccc(C(=O)c2c[nH]c3ncc(-c4cnc(C5CC5)nc4)cc23)c1F [P-0251, [5-(2-cyclopropylpyrimidin-5-yl)-1H-pyrrolo[2,3-b]pyridin-3-yl]-[2-fluoro-3-(propylsulfamoylamino)phenyl]methanone] | > 1
CCN(C)S(=O)(=O)Nc1ccc(F)c(C(=O)c2c[nH]c3ncc(-c4ccc5c(c4)NC(=O)C5)cc23)c1F [P-0309, 3-[3-[[ethyl(methyl)sulfamoyl]amino]-2,6-difluoro-benzoyl]-5-(2-oxoindolin-6-yl)-1H-pyrrolo[2,3-b]pyridine] | < 1
CNS(=O)(=O)Nc1ccc(F)c(C(=O)c2c[nH]c3ncc(-c4cnc(C5CC5)nc4)cc23)c1F [P-0334, [5-(2-cyclopropylpyrimidin-5-yl)-1H-pyrrolo[2,3-b]pyridin-3-yl]-[2,6-difluoro-3-(methylsulfamoylamino)phenyl]methanone] | > 1

Same assay, conditions: Homo sapiens, A-375; A375 cells (text: A375_P-ERK); compounds known in the art

Compound | IC50 [µM]
COc1ncc(-c2cnc3[nH]cc(C(=O)c4c(F)ccc(NS(=O)(=O)c5cc(F)ccc5F)c4F)c3c2)cn1 | < 0.5
COc1ncc(-c2cnc3[nH]cc(C(=O)c4c(F)ccc(NS(=O)(=O)c5ccccc5F)c4F)c3c2)cn1 | < 0.5

Tested on: COLO205 colon adenocarcinoma cells (B-Raf V600E mutation)
Test: COLO205 cell growth inhibition assay (ATPlite)
Type: cell-based, human
Details: Homo sapiens, COLO 205, compounds known in the art
Description: Compounds are assessed in a variety of cell based assays. For example human cell lines with B-RafV600E mutation (A375 melanoma, SKMEL3 melanoma, and COLO205 colon adenocarcinoma), as well as tumorigenic cell lines with wild-type B-RAF (SW620 colon adenocarcinoma) or with Ras mutations (SKMEL2 melanoma and IPC298 melanoma).
On day 1, cells are counted, then centrifuged in a conical tube for 5 minutes at 1000 rpm.
On day 2, compound at a maximum concentration of 5 mM is serially diluted 1:3 (e.g. 10 μL with 30 μL dimethyl sulfoxide) for a total of 8 point titration with DMSO as a control. A 1 μL aliquot of each dilution point and control is added to 249 μL growth media and 50 μL is added to a well containing cells, providing 10 μM compound at the maximum concentration point. The cells are incubated for 3 days at 37° C. in 5% CO2.
ATPlite is added 25 μL to each well, shake for 2 minutes, and the cells are incubated at room temperature for 10 minutes, then luminescence is read on Safire reader. The measured luminescence correlates directly with cell number, such that the reading as a function of compound concentration is used to determine the IC50 value.

Compound | IC50 [µM]
COc1ncc(-c2cnc3[nH]cc(C(=O)c4c(F)ccc(NS(=O)(=O)c5cc(F)ccc5F)c4F)c3c2)cn1 | < 1
COc1ncc(-c2cnc3[nH]cc(C(=O)c4c(F)ccc(NS(=O)(=O)c5ccccc5F)c4F)c3c2)cn1 | < 1
